Measurements published in patent publication US6911474B2, “Methods, compounds, and compositions for reducing body fat and modulating fatty acid metabolism” (The Regents of the University of California, priority 2001, dated 2005).
“And” between values parts separate entries of the source, which are not always exact repeats. Equal values may be shown once.

Assays:
[1] = Subchronic administration: food intake, body weight and water intake; format: in vivo, rat; conditions: 5 mg per kg, i.p., daily for seven days
Method: Feeding experiments. Acute experiments. Food intake was measured in 24-h food-deprived rats (Navarro et al., J. Neurochem., 67:1982-1991 (1996)), administering drugs 15 min before food presentation. Subchronic experiments. Ad libitum fed rats received vehicle injections for three days. On day four, the animals were divided in two equal groups and gave them daily injections of vehicle or OEA (5 mg per kg at 1900 h) for 7 consecutive days, while measuring body weight, food intake and water intake.
OEA was subchronically administered to rats.

[2] = biological target: T1, cannabinoid receptors (rat brain membranes) (Rattus norvegicus, UniProt P20272); assay: Displacement of cannabinoid binding to rat brain membranes in vitro
T1 construct: from tissue; host or cells: rat brain membranes

[3] = Plasma hormone levels by radioimmunoassay (HPA axis); format: in vivo, rat; conditions: Table 3
Method: Blood chemistry. Plasma β-hydroxybutyrate and glycerol were measured using commercial kits (Sigrna, St. Louis, Mo.). Plasma prolactin, corticosterone and luteinizing hormone were quantified by radioimmunoassay (Navarro et al., Neuroreport, 8:491-496 (1997)).

Acute water intake = format: in vivo, rat; conditions: 5 or 20 mg per kg; FIG. 4d
Method: FIG. 4. Oleoylethanolamide/[…] selectively suppresses food intake: […] Vehicle alone (70% DMSO in saline, 1 ml per kg, i.p.) had no significant effect on acute food intake; (b) time course of the hypophagic effects of oleoylethanolamide (20 mg per kg, i.p.) (squares) or vehicle (lozenges) on food intake. […] Empty bars, water intake; filled bars, saccharin intake. Effects of vehicle (V) or oleoylethanolamide (5 or 20 mg per kg) on: (d) water intake (expressed in ml per 4 h); (e) body temperature; (f) latency to jump in the hot plate analgesia test; (g) percent time spent in open arms in the elevated plus maze anxiety test; (h) number of crossings in the open field activity test; (i) number of operant responses for food. Asterisk, P<0.05, n=8-12 per group.

[4] = Body (rectal) temperature; format: in vivo, rat; conditions: 5 or 20 mg per kg; FIG. 4e
Method: (§1) Other behavioral assays. The elevated plus maze test was conducted as described (Navarro et al., Neuroreport, 8:491-496 (1997)) after the administration of vehicle or OEA (20 mg per kg, i.p.). Horizontal activity in an open field (Beltramo et al., J. Neurosci., 20:3401-3407 (2000)) and pain threshold in the hot plate test (55° C.) (Beltramo et al., Science, 277:1094-1097 (1997)) were measured 15 min after injection of vehicle or OEA (20 mg per kg). Rectal temperature was measured using a digital thermometer (Martin-Calderón et al., Eur. J. Pharmacol., 344:77-86. (1998)).

[5] = Elevated plus maze anxiety test; format: in vivo, rat; conditions: FIG. 4g
Method: as §1

[6] = Operant responses for food; format: in vivo, rat; conditions: at a dose substantially higher than those required to produce hypophagia; FIG. 4i
Text: Operant responses for food. Rats were trained to lever press for food on a fixed ratio 1 (FR1) schedule of reinforcement, while food-restricted at 20 g of chow per rat per day (Rodriguez de Fonseca et al., Acta Pharmacol. Sin., 20:1109-1114 (1999)). Once stable responding was achieved, the animals were trained to acquire an FR5, time out 2-min schedule of food reinforcement and kept in limited access to food. When a stable baseline was obtained, the animals were used to test the effects of vehicle or OEA (1, 5 or 20 mg per kg) administered 15 min before lever presentation. Test duration was 60 min.

[7] = Circulating OEA level after i.p. administration (HPLC/MS); format: in vivo; conditions: rat, plasma, ip, 1 hr after 5 mg per kg, read-out: circulating OEA levels
Method: HPLC/MS analyses. Plasma was prepared from blood obtained by cardiac puncture (Giuffrida et al., Anal. Biochem., 280:87-93 (2000)) and CSF was collected from the cisterna magna using a 27G ½ needle (Precisionglide, USA). FAEs and NAPE were extracted from tissues with methanol/chloroform and fractionated by column chromatography (Giuffrida et al., “Lipid Second Messengers” (ed. Laychock, S. G. & Rubin, R. P.) 113-133 (CRC Press LLC, Boca Raton, Fla., 1998)). FAEs were quantified by HPLC/MS, using an isotope dilution method (Giuffrida et al., Anal. Biochem., 280:87-93 (2000)). Individual NAPE species were identified and quantified by HPLC/MS, using an external standard method (Calignano et al., Nature, 408:96-101 (2000)).
OEA elicits hypophagia at physiologically relevant doses. […] Thus, the concentrations reached by OEA in blood during starvation can be sufficient to elicit notable behavioral responses.

Hepatocyte = assay: [14C]oleate oxidation to ketone bodies in hepatocytes; format: cell-based, rat
Method: Compounds can also be assayed for their effect on fatty acid metabolism. The effect of the candidate compound on fatty acid metabolism can be measured by measurements of fatty acid oxidation in primary cultures of liver cells. Hepatocytes may be used to determine the rate of oleate oxidation to ketone bodies and carbon dioxide. Such cells can be isolated from adult rat liver by enzymatic digestion as described by Beynen et al. in Diabetes 28:828 (1979). Cells typically are cultured in suspension and incubated in Krebs-Henseleit's bicarbonate medium supplemented with bovine serum albumin and glucose as described by Guzmán & Geelen, Biochem. J. 287:487(1992). The protein concentration of the cultured cells can be determined and cells seeded in 2 ml media so that 4-6 mg protein per ml is present in the reaction mixture. Cells can be incubated for 10 minutes at 37° C. with [^14C]-oleic acid (Arnersham), in the presence or absence of 10 μM OEA, reactions may be stopped with 200 μl 2M perchloric acid and acid-soluble products extracted with chloroform/methanol/water (5:1:1, vol:vol:vol). The aqueous phase can be removed and washed twice more. Protein concentration can be determined using a Lowry assay. The rate of oleate conversion into ketone bodies may be expressed as rnmol of oleate oxidized per hour per mg protein and may be determined using liquid scintillation counting. […]

Astrocyte = assay: [14C]oleate oxidation to ketone bodies in astrocytes; format: cell-based, rat

T1 sequence (P20272 whole entry): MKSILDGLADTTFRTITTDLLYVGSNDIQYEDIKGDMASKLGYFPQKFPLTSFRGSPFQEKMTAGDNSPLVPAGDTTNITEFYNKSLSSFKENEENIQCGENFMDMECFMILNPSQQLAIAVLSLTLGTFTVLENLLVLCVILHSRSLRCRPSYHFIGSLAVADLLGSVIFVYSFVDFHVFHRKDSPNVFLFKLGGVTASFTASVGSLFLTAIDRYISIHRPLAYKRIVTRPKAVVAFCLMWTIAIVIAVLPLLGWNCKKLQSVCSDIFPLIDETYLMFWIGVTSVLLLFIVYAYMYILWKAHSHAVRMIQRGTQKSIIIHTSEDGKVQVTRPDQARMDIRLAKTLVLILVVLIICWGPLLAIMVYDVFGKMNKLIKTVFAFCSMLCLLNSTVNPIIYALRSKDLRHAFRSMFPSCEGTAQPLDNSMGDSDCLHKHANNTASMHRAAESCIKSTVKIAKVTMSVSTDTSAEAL

SMILES: CCCCCCCC/C=C\CCCCCCCC(=O)NCCO [OEA, Oleoylethanolamide]
- cumulative food intake ([1]; FIG. 5a): small, but significant decrease
- weight gain ([1]; FIG. 5b,c): profound inhibition
- water intake ([1]; FIG. 5d): did not affect
- displacement of cannabinoid binding [2]: did not displace
- activity of the hypothalamus-pituitary-adrenal (HPA) axis [3]: did not alter
- water intake (Acute water intake): did not alter
- body temperature [4]: did not alter
- anxiety-like symptoms [5]: did not produce anxiety-like symptoms
- operant responses for food [6]: reduced
- concentration at 1 hr [7]: 16.1 ± 2.6 nM
- Stimulatory effect of 10 μM OEA (%) on [14C]oleate oxidation to ketone bodies (Hepatocyte; Hepatocyte, 10 μM, 10 min incubation): 21+−6% and 21 ± 6%
- fatty acid oxidation in words (Hepatocyte; primary cultures of liver cells): significantly stimulates
- Stimulatory effect of 10 μM OEA (%) on [14C]oleate oxidation to ketone bodies (Astrocyte; Astrocyte, 10 μM, 30 min incubation): 2 ± 6%
- fatty acid oxidation in words (Astrocyte; brain-derived astroglial cell cultures): no effect
